These results are taken from US20080226596A1, “Therapeutic compositions and methods useful in treating hepatitis” (priority 2006, published 2008).

Data set [1] deals with DU145 human prostate carcinoma xenografts. The data set is described as follows: DU145 xenografts in nude mice. The format is in vivo. Conditions: 440 mg/kg daily. Here is the method:
The dosage of sodium stibogluconate corresponds to approximately 440 mg Sb/kg body weight (average mouse body weight 27 g), substantially higher than the standard therapeutic dose of 20 mg Sb/kg and the high dose (143 mg Sb/kg) that was clinically used by accident without serious toxicity. This dose of sodium stibogluconate was based on a previous observation in a pilot study that mice could tolerate daily dose of 20 mg Sb (approximately 700-800 mg Sb/kg). […] In light of the relatively rapid rate of clearance of the drug in vivo, 440 mg Sb/kg dosage was used to ensure the detection of the effectiveness of the drug for this initial study.
For each of the cell lines, each of 16 mice received subcutaneous injection at the chest area of 3×10^6 cells/site (WM9) or 2×10^6 cells/site (DU145), two sites/mouse, on day 0. Mice were separated into four groups of four to receive treatment, injected into the thigh area starting on day 2. Tumor size was measured with a caliper to determine the two perpendicular diameters of each tumor. Tumor volume was calculated using the method of the NCI (length×width 2 in millimeters/2=volume in cubic millimeters). […]

In another data set the test system is NB4 cells. Nature of the data set: NB4 differentiation, NBT reduction. The format is cell-based, human. The procedure:
Differentiation of AML cell lines was assessed by their ability to produce superoxide as measured by reduction of NBT to formazan and by analysis of expression of CD11b surface marker by flow cytometry. For NBT reduction, each cell suspension was mixed with an equal volume of solution containing 1 mg/ml of NBT (Sigma) and 2.5 µg/ml of TPA for 30 minutes at 37° C. After incubation, cells containing the purple formazan deposits and cells devoid of NBT-reducing activity (white cells) in each sample were determined by counting 200 cells under microscope. Data is expressed as a percentage based on the following ratio: purple cells/purple+white cells. For analysis of cell surface antigens, cells were exposed to phycoerythrin (PE)-conjugated murine anti-human CD11b (DAKO Corp., Carpinteria, Calif.). Analysis of fluorescence was performed on a FACScan flow cytometer (Beckton Dickinson, Mountain View, Calif.).

For the next data set, the target named is T1, intracellular Flag-PRL-1 (Homo sapiens, UniProt Q93096).
T1 construct: expressed in transfected cells; host or cells: NIH3T3 (A51) or WM9 (A61) transfectants, pBabepuro vector
Nature of the data set: Immunocomplex PTPase assay, Flag-PRL-1 NIH3T3 transfectants. It is filed as cell-based, mouse. Conditions: 5 min treatment. The procedure:
Immunocomplex PTPase assays were performed to assess the effects of sodium stibogluconate on intracellular PTPases. Cells were untreated or treated with sodium stibogluconate for 5 minutes, washed with fresh medium and then lysed in cold lysis buffer (50 mM Tris, pH 7.4; 150 mM NaCl; 1% NP40; 2 mM PMSF; 20, g/ml of Aprotinin). The lysates were incubated with an anti-Flag antibody in immunoprecipitation assays. The immunocomplexes were collected with protein G sepharose beads (Pharmacia) and washed in cold lysis buffer for 4 times. […] 100 µL of malachite green solution (UBI) was added to each reaction prior to measurement of OD660 to quantify the amounts of free phosphate cleaved by the PTPases from the peptide substrate (Pathak et al., J. Imumol. 167, 3391 (2001)). The remaining 10% contents of individual samples were analyzed by SDS-PAGE/Western blotting to quantify the relative amounts of the phosphatase proteins. […]
The effects of sodium stibogluconate on intracellular PTPases were assessed using NIH3T3 or WM9 transfectants. […]

T1 sequence (Q93096 whole entry): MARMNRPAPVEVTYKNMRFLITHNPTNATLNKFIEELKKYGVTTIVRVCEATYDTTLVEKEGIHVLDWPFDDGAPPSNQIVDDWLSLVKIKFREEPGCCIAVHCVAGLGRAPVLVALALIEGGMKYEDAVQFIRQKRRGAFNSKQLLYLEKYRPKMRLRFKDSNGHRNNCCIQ

For the compound `O.O.O.O.O.O.O.O.O.O=C([O-])[C@@H]1[O][Sb]2([O-])([O][Sb]34([OH])[O][C@H]([C@H](O)CO)[C@H]([O]3)[C@H](C(=O)[O-])[O]4)[O][C@H]([C@H](O)CO)[C@@H]1[O]2.[Na+].[Na+].[Na+]` [sodium stibogluconate], the “histology of major organs” value in data set [1] is “unremarkable”. Moreover, in data set [1] (until the end of the study), the “survival of DU145-inoculated mice” value is given as “survived”. In addition, the “NB4 differentiation induction” value in the data set on NB4 cells (10 to 400 μg/ml, day 3 or day 6) was “differentiation induction activity at all of the dosages”. For the same compound, the “reversal of NB4 differentiation after drug removal” value in the data set with NB4 cells (6 days with drug (10 or 100 μg/ml), washed, 6 days without) is “not reversed”. For the same compound, the “PTPase activity of Flag-PRL-1 immunocomplexes from treated cells” value at intracellular Flag-PRL-1 is “little PTPase activities”.
